Reference: patent US10941152B2, “Pyrazole compounds as modulators of FSHR and uses thereof” (TOCOPHERX, INC., priority 2014, dated 2021)
pEC50: −log10 of the molar value.

Key:
[1] = target: T1, follicle-stimulating hormone (FSH) receptor (Rattus norvegicus, UniProt P20395); experiment: Rat granulosa EC50 FSH (Assay B); assay type: cell-based
T1 construct: endogenous in cells; host or cells: rat granulosa cells
T1 sequence (P20395 18-692): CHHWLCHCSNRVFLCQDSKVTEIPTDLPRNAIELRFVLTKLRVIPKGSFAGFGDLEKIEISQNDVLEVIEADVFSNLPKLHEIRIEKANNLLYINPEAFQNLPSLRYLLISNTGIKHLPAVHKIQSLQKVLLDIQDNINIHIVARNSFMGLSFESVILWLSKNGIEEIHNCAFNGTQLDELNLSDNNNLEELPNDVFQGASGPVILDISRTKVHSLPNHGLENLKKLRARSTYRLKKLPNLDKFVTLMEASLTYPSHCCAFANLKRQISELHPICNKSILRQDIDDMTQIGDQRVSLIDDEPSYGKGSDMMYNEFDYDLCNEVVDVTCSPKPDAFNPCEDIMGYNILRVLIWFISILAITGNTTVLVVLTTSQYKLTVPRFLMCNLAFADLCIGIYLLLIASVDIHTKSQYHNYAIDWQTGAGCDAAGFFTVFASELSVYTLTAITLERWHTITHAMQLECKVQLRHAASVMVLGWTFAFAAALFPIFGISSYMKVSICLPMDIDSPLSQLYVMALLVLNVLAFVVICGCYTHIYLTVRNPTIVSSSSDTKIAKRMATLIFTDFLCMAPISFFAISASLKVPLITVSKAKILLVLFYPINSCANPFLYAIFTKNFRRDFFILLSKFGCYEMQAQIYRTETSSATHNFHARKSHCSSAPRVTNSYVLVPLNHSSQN
Experimental: Example 25. Rat granulosa EC50 FSH (Assay B)
The assay was performed pursuant to the teaching of Yanofsky et al. (2006) Allosteric activation of the follicle-stimulating hormone (FSH) receptor by selective, nonpeptide agonists (JBC 281(19): 13226-13233, which is incorporated by reference in the disclosure of the invention).

FSHR = target: T2, FSHR (Homo sapiens, UniProt P23945); experiment: EC50 of cyclic AMP production in CHO FSHR cells + EC20 FSH (Assay A); assay type: cell-based; conditions: cyclic AMP production in CHO FSHR cells + EC20 FSH (0.265 pM), HTRF
T2 construct: expressed in transfected cells; host or cells: CHO (Cho-FSHR-LUC-1-1-43)
T2 sequence (P23945 18-695): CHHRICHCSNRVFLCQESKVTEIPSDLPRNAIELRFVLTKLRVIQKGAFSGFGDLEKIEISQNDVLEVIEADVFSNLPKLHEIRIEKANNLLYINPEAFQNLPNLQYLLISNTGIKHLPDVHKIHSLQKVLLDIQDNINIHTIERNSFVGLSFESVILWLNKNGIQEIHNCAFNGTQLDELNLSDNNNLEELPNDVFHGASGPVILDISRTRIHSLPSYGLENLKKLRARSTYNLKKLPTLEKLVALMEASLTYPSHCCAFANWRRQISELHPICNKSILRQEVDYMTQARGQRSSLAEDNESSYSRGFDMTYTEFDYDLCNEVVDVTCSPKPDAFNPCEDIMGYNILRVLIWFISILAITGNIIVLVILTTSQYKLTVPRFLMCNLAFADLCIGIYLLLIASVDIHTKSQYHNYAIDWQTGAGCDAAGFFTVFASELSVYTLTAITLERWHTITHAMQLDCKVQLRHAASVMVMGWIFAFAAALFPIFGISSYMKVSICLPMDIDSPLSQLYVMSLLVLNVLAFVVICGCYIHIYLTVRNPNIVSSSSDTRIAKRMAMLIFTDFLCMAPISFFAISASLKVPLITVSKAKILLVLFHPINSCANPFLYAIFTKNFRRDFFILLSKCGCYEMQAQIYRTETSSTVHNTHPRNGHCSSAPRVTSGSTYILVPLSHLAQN
Experimental: Example 24. EC50 of cyclic AMP production in CHO FSHR cells+EC20 FSH (Assay A)
2500 Cho-FSHR-LUC-1-1-43 cells were plated per well in 5 al of phenol red free DMEM/F12+1% FBS. Cells were plated in 384 well, solid white low volume plates (Greiner 784075) by Multidrop. Cells were assayed by adding 100 al of 2×EC20 FSH/IBMX in DMEM/F12+0.1% BSA) by Multidrop to 2 al of test compound stamped in 384 well plates (compounds are diluted 1:50). The final FSH concentration was 0.265 pM, and the final IBMX concentration was 200 μM. The compound plate map was as follows: Column 1: 2 μl of DMSO; Column 2: 2 μl of DMSO; Columns 3-12 and 13-24: 2 μl of test compound, diluted 1:4 in 100% DMSO, or 2 μl of FSH, diluted 1:4 in DMEM/F12+0.1% BSA. The starting concentration for FSH was 50 nM (final concentration was 0.5 nM). Furthermore, Column 23 contained 2 μl of EC100 FSH reference (100×) (diluted in DMEM/F12+0.1% BSA) at a final concentration of 0.5 nM, and Column 24 contained 2 μl of 1 mM AS707664/2 reference compound 2. 5 μl of compound+EC20 FSH mixture were transferred to cell plates (1:2 dilution into 5 μl of cell media) The plates were incubated at 37° C. for 1 h. 10 μl of mixed HTRF (CisBio #62AM4PEC) reagents were added per well and incubated at room temperature for 1 h. The plates were read on Envision using the cAMP HTRF—low volume 384 well protocol. The readout was the calculated fluorescence ratio (665 nm/620 nm). Values given in percent (%) indicate the percental effect (response) at a certain concentration of agonist relative to the maximum response of the FSH standard.

Row | pEC50 [1] | pEC50 (FSHR) | SMILES
1 | < 6.30 | 7.00 to 8.00 | COc1cc2c(cc1-c1cncc(C)c1)-c1c(c(C(=O)N(C)C(C)(C)C)nn1-c1ccsc1)CO2 [Compound 59, N-tert-butyl-7-methoxy-N-methyl-8-(5-methylpyridin-3-yl)-1-(thiophen-3-yl)-1,4-dihydrochromeno[4,3-c]pyrazole-3-carboxamide]
2 | 7.00 to 8.00 | > 8.00 | CNC(=O)c1cc(-c2cc3c(cc2OC)OCc2c(C(=O)N(C)C(C)(C)C)nn(-c4cc(F)cc(F)c4)c2-3)cnc1N [Compound 100, 8-(6-amino-5-(methylcarbamoyl)pyridin-3-yl)-N-tert-butyl-1-(3,5-difluorophenyl)-7-methoxy-N-methyl-1,4-dihydrochromeno[4,3-c]pyrazole-3-carboxamide]
3 | 6.30 to 7.00 | > 8.00 | COc1cc2c(cc1-c1cnc(N)c(C)c1)-c1c(c(C(=O)N(C)C(C)(C)C)nn1-c1cc(Cl)cc(Cl)c1)CO2 [Compound 17, 8-(6-amino-5-methylpyridin-3-yl)-N-tert-butyl-1-(3,5-dichlorophenyl)-7-methoxy-N-methyl-1,4-dihydrochromeno[4,3-c]pyrazole-3-carboxamide]
4 | 7.00 to 8.00 | > 8.00 | COc1cc2c(cc1-c1cc(C#N)c[n+]([O-])c1)-c1c(c(C(=O)N3CCOCC3(C)C)nn1-c1cc(Cl)cc(Cl)c1)CO2 [Compound 177]
5 | 7.00 to 8.00 | > 8.00 | COC(=O)c1cc(-c2cc3c(cc2OC)OCc2c(C(=O)N(C)C(C)(C)C)nn(-c4cc(F)cc(F)c4)c2-3)cnc1N [Compound 65, methyl 2-amino-5-(3-(tert-butyl(methyl)carbamoyl)-1-(3,5-difluorophenyl)-7-methoxy-1,4-dihydrochromeno[4,3-c]pyrazol-8-yl)nicotinate]
6 | 7.00 to 8.00 | > 8.00 | COc1cc2c(cc1-c1cncc(C(N)=O)c1)-c1c(c(C(=O)N(C)C(C)(C)C#N)nn1-c1cc(F)cc(Cl)c1)CO2 [Compound 110, 8-(5-carbamoylpyridin-3-yl)-1-(3-chloro-5-fluorophenyl)-N-(2-cyanopropan-2-yl)-7-methoxy-N-methyl-1,4-dihydrochromeno[4,3-c]pyrazole-3-carboxamide]
7 | 7.00 to 8.00 | > 8.00 | COc1cc2c(cc1-c1cc(C(N)=O)ncc1F)-c1c(c(C(=O)N(C)C(C)(C)C#N)nn1-c1cc(F)cc(F)c1)CO2 [Compound 109, 8-(2-carbamoyl-5-fluoropyridin-4-yl)-N-(2-cyanopropan-2-yl)-1-(3,5-difluorophenyl)-7-methoxy-N-methyl-1,4-dihydrochromeno[4,3-c]pyrazole-3-carboxamide]
8 | 7.00 to 8.00 | > 8.00 | COc1cc2c(cc1-c1cnn(CC(N)=O)c1)-c1c(c(C(=O)N(C)C(C)(C)C)nn1-c1cc(Cl)cc(Cl)c1)CO2 [Compound 2, 8-(1-(2-amino-2-oxoethyl)-1H-pyrazol-4-yl)-N-tert-butyl-1-(3,5-dichlorophenyl)-7-methoxy-N-methyl-1,4-dihydrochromeno[4,3-c]pyrazole-3-carboxamide]
9 | 6.30 to 7.00 | 7.00 to 8.00 | COc1cc2c(cc1-c1cc(=O)[nH][nH]1)-c1c(c(C(=O)N(C)C(C)(C)C)nn1-c1ccsc1)CO2 [Compound 185, N-tert-butyl-7-methoxy-N-methyl-8-(5-oxo-2,5-dihydro-1H-pyrazol-3-yl)-1-(thiophen-3-yl)-1,4-dihydrochromeno[4,3-c]pyrazole-3-carboxamide]
10 | 7.00 to 8.00 | > 8.00 | COc1cc(OC)cc(-n2nc(C(=O)N(C)C(C)(C)C)c3c2-c2cc(-c4cncc(C(N)=O)c4)c(OC)cc2OC3)c1 [Compound 160]
11 | 6.30 to 7.00 | 7.00 to 8.00 | COc1cc(Cl)cc(-n2nc(C(=O)N(C)C(C)(C)C)c3c2-c2cc(-c4cnn(CCO)c4)c(OC)cc2OC3)c1 [Compound 79, N-tert-butyl-1-(3-chloro-5-methoxyphenyl)-8-(1-(2-hydroxyethyl)-1H-pyrazol-4-yl)-7-methoxy-N-methyl-1,4-dihydrochromeno[4,3-c]pyrazole-3-carboxamide]
12 | 6.30 to 7.00 | > 8.00 | COc1cc2c(cc1-c1ccccc1C(N)=O)-c1c(c(C(=O)N(C)C(C)(C)C)nn1-c1cc(Cl)cc(Cl)c1)CO2 [Compound 98, N-tert-butyl-8-(2-carbamoylphenyl)-1-(3,5-dichlorophenyl)-7-methoxy-N-methyl-1,4-dihydrochromeno[4,3-c]pyrazole-3-carboxamide]
13 | 6.30 to 7.00 | 7.00 to 8.00 | COc1cc(F)cc(-n2nc(C(=O)N3CCOCC3(C)C)c3c2-c2cc(-c4ccn(C)n4)c(OC)cc2OC3)c1 [Compound 53, (3,3-dimethylmorpholino)(1-(3-fluoro-5-methoxyphenyl)-7-methoxy-8-(1-methyl-1H-pyrazol-3-yl)-1,4-dihydrochromeno[4,3-c]pyrazol-3-yl)methanone]
14 | 7.00 to 8.00 | > 8.00 | COc1cc2c(cc1-c1cnn(CC(N)=O)c1)-c1c(c(C(=O)N3CCOCC3(C)C)nn1-c1cc(F)cc(Cl)c1)CO2 [Compound 69, 2-(4-(1-(3-chloro-5-fluorophenyl)-3-(3,3-dimethylmorpholine-4-carbonyl)-7-methoxy-1,4-dihydrochromeno[4,3-c]pyrazol-8-yl)-1H-pyrazol-1-yl)acetamide]
15 | 6.30 to 7.00 | > 8.00 | COC(=O)Cn1nc(C)c(-c2cc3c(cc2OC)OCc2c(C(=O)N(C)C(C)(C)C)nn(-c4cc(Cl)cc(Cl)c4)c2-3)c1C [Compound 138, methyl 2-(4-(3-(tert-butyl(methyl)carbamoyl)-1-(3,5-dichlorophenyl)-7-methoxy-1,4-dihydrochromeno[4,3-c]pyrazol-8-yl)-3,5-dimethyl-1H-pyrazol-1-yl)acetate]
16 | 7.00 to 8.00 | > 8.00 | COc1cc2c(cc1-c1cccnc1F)-c1c(c(C(=O)N3CCOCC3(C)C)nn1-c1ccsc1)CO2 [Compound 61, (3,3-dimethylmorpholino)(8-(2-fluoropyridin-3-yl)-7-methoxy-1-(thiophen-3-yl)-1,4-dihydrochromeno[4,3-c]pyrazol-3-yl)methanone]
17 | 7.00 to 8.00 | > 8.00 | COc1cc2c(cc1-c1ccccn1)-c1c(c(C(=O)N3CCC(O)CC3(C)C)nn1-c1cc(Cl)cc(Cl)c1)CO2 (stereo not shown) [Compound 10, (1-(3,5-dichlorophenyl)-7-methoxy-8-(pyridin-2-yl)-1,4-dihydrochromeno[4,3-c]pyrazol-3-yl)(4-hydroxy-2,2-dimethylpiperidin-1-yl)methanone]
